Data from the NIST ThermoML archive (doi:10.1016/j.jct.2011.09.027).

Details: Liquid; for viscosity: Concentric cylinders viscometry; for mass density: Vibrating tube method

CCOS(=O)(=O)[O-].CCn1cc[n+](C)c1 [1-ethyl-3-methylimidazolium ethyl sulfate]
Details | mass density [kg/m3] | viscosity [mPa·s]
278.15 K, 101.33 kPa | – | 309.1
283.12 K, 19658 kPa | 1255.37 | –
283.13 K, 29946 kPa | 1259.21 | –
283.14 K, 98469 kPa | 1282.72 | –
283.15 K, 101.33 kPa | 1247.88 | 225.2
283.15 K, 40036 kPa | 1262.89 | –
283.15 K, 49963 kPa | 1266.44 | –
283.15 K, 59714 kPa | 1269.86 | –
283.15 K, 69986 kPa | 1273.38 | –
283.15 K, 79625 kPa | 1276.61 | –
283.15 K, 89964 kPa | 1280 | –
283.15 K, 109866 kPa | 1286.29 | –
283.15 K, 120746 kPa | 1289.61 | –
283.15 K, 129872 kPa | 1292.32 | –
283.15 K, 139485 kPa | 1295.11 | –
283.16 K, 1391 kPa | 1248.37 | –
283.18 K, 9875 kPa | 1251.65 | –
283.19 K, 5138 kPa | 1249.82 | –
293.13 K, 39626 kPa | 1256.03 | –
293.14 K, 1092 kPa | 1241.38 | –
293.14 K, 3910 kPa | 1242.48 | –
293.14 K, 9925 kPa | 1244.83 | –
293.14 K, 19948 kPa | 1248.68 | –
293.14 K, 29954 kPa | 1252.45 | –
293.14 K, 123824 kPa | 1284.35 | –
293.14 K, 129866 kPa | 1286.19 | –
293.14 K, 140209 kPa | 1289.28 | –
293.15 K, 101.33 kPa | 1241.01 | 123.5
293.15 K, 49964 kPa | 1259.78 | –
293.15 K, 89997 kPa | 1273.58 | –
293.15 K, 99862 kPa | 1276.81 | –
293.15 K, 109863 kPa | 1280.01 | –
293.16 K, 80177 kPa | 1270.3 | –
293.17 K, 69997 kPa | 1266.83 | –
293.18 K, 60017 kPa | 1263.35 | –
298.13 K, 19821 kPa | 1245.34 | –
298.13 K, 29997 kPa | 1249.26 | –
298.13 K, 39886 kPa | 1252.98 | –
298.15 K, 49994 kPa | 1256.71 | –
298.15 K, 58874 kPa | 1259.91 | –
298.15 K, 69996 kPa | 1263.83 | –
298.16 K, 101.33 kPa | 1237.53 | 97.2
298.16 K, 10471 kPa | 1241.67 | –
298.16 K, 79619 kPa | 1267.14 | –
298.16 K, 89998 kPa | 1270.63 | –
298.16 K, 99253 kPa | 1273.66 | –
298.16 K, 109867 kPa | 1277.06 | –
298.16 K, 120082 kPa | 1280.24 | –
298.16 K, 129865 kPa | 1283.2 | –
298.16 K, 139020 kPa | 1285.9 | –
298.17 K, 5192 kPa | 1239.56 | –
298.19 K, 981 kPa | 1237.87 | –
303.15 K, 101.33 kPa | – | 77.1
313.1 K, 944 kPa | 1227.8 | –
313.14 K, 4705 kPa | 1229.35 | –
313.14 K, 39636 kPa | 1243.24 | –
313.14 K, 49994 kPa | 1247.16 | –
313.14 K, 60122 kPa | 1250.92 | –
313.15 K, 101.33 kPa | 1227.47 | 50.9
313.15 K, 19818 kPa | 1235.48 | –
313.15 K, 30003 kPa | 1239.51 | –
313.15 K, 69996 kPa | 1254.49 | –
313.15 K, 109873 kPa | 1268.13 | –
313.15 K, 120354 kPa | 1271.49 | –
313.15 K, 129874 kPa | 1274.47 | –
313.16 K, 9378 kPa | 1231.27 | –
313.16 K, 79657 kPa | 1257.92 | –
313.16 K, 89993 kPa | 1261.49 | –
313.16 K, 99450 kPa | 1264.69 | –
313.16 K, 138377 kPa | 1277.07 | –
323.15 K, 101.33 kPa | – | 35.1
333.12 K, 19852 kPa | 1222.8 | –
333.12 K, 79184 kPa | 1246.16 | –
333.13 K, 9972 kPa | 1218.57 | –
333.13 K, 89997 kPa | 1250.05 | –
333.13 K, 97104 kPa | 1252.54 | –
333.15 K, 101.33 kPa | 1214.27 | 25.2
333.15 K, 4956 kPa | 1216.39 | –
333.15 K, 29992 kPa | 1227.03 | –
333.15 K, 69997 kPa | 1242.77 | –
333.15 K, 109862 kPa | 1256.89 | –
333.15 K, 121234 kPa | 1260.63 | –
333.16 K, 49995 kPa | 1235.1 | –
333.16 K, 60002 kPa | 1238.99 | –
333.16 K, 129872 kPa | 1263.39 | –
333.17 K, 1680 kPa | 1214.95 | –
333.17 K, 40144 kPa | 1231.18 | –
333.18 K, 139672 kPa | 1266.43 | –
343.15 K, 101.33 kPa | – | 18.7
353.13 K, 19599 kPa | 1209.45 | –
353.13 K, 29993 kPa | 1214.03 | –
353.13 K, 39918 kPa | 1218.29 | –
353.13 K, 79974 kPa | 1234.36 | –
353.13 K, 119073 kPa | 1248.32 | –
353.14 K, 89917 kPa | 1238.07 | –
353.14 K, 99462 kPa | 1241.53 | –
353.14 K, 109824 kPa | 1245.17 | –
353.14 K, 129849 kPa | 1251.87 | –
353.14 K, 139892 kPa | 1255.06 | –
353.15 K, 101.33 kPa | 1200.53 | 14.6
353.15 K, 49925 kPa | 1222.47 | –
353.15 K, 69993 kPa | 1230.52 | –
353.18 K, 59605 kPa | 1226.41 | –
353.19 K, 1193 kPa | 1201.04 | –
353.19 K, 4987 kPa | 1202.81 | –
353.19 K, 10093 kPa | 1205.15 | –
363.15 K, 101.33 kPa | 1194.25 | 11.9
373.11 K, 118179 kPa | 1236.88 | –
373.12 K, 19814 kPa | 1197.22 | –
373.13 K, 10765 kPa | 1192.98 | –
373.13 K, 29997 kPa | 1201.88 | –
373.13 K, 39971 kPa | 1206.31 | –
373.13 K, 98959 kPa | 1230.06 | –
373.13 K, 109856 kPa | 1233.98 | –
373.13 K, 129856 kPa | 1240.8 | –
373.14 K, 49993 kPa | 1210.64 | –
373.15 K, 101.33 kPa | – | 9.7
373.15 K, 59698 kPa | 1214.72 | –
373.15 K, 90001 kPa | 1226.72 | –
373.15 K, 140000 kPa | 1244.08 | –
373.16 K, 69987 kPa | 1218.92 | –
373.17 K, 1377 kPa | 1188.48 | –
373.17 K, 5226 kPa | 1190.34 | –
373.17 K, 79962 kPa | 1222.87 | –
393.12 K, 910 kPa | 1175.14 | –
393.12 K, 59389 kPa | 1202.77 | –
393.12 K, 69993 kPa | 1207.25 | –
393.12 K, 79111 kPa | 1210.99 | –
393.13 K, 5153 kPa | 1177.31 | –
393.13 K, 89994 kPa | 1215.29 | –
393.14 K, 99376 kPa | 1218.86 | –
393.15 K, 49959 kPa | 1198.64 | –
393.15 K, 109877 kPa | 1222.71 | –
393.15 K, 119972 kPa | 1226.26 | –
393.15 K, 129874 kPa | 1229.6 | –
393.15 K, 139106 kPa | 1232.59 | –
393.16 K, 10368 kPa | 1179.94 | –
393.16 K, 20408 kPa | 1184.89 | –
393.16 K, 29995 kPa | 1189.49 | –
393.16 K, 39725 kPa | 1194.02 | –
413.12 K, 9823 kPa | 1167.05 | –
413.12 K, 98120 kPa | 1207.66 | –
413.13 K, 19924 kPa | 1172.37 | –
413.13 K, 109866 kPa | 1212.06 | –
413.13 K, 120361 kPa | 1215.8 | –
413.15 K, 5311 kPa | 1164.62 | –
413.15 K, 29993 kPa | 1177.5 | –
413.15 K, 89994 kPa | 1204.48 | –
413.15 K, 129864 kPa | 1219.02 | –
413.17 K, 1563 kPa | 1162.57 | –
413.17 K, 39896 kPa | 1182.37 | –
413.17 K, 49998 kPa | 1187.17 | –
413.17 K, 59469 kPa | 1191.52 | –
413.17 K, 69996 kPa | 1196.16 | –
413.17 K, 139292 kPa | 1222.06 | –
413.18 K, 79893 kPa | 1200.36 | –
